{"source": "patent US9492471B2", "about": "“Methods of treating a disease or disorder associated with Bruton'S Tyrosine Kinase” (Celgene Avilomics Research, Inc., priority 2013, dated 2016)", "assay_in_all_cases": "HotSpot kinase profiling", "format_in_all_cases": "biochemical", "key": {"Aurora B": {"molecular_target": "T1, Aurora B (Homo sapiens, UniProt Q96GD4)", "T1 construct": "purchased Reaction Biology Corp", "T1 sequence (Q96GD4 whole entry)": "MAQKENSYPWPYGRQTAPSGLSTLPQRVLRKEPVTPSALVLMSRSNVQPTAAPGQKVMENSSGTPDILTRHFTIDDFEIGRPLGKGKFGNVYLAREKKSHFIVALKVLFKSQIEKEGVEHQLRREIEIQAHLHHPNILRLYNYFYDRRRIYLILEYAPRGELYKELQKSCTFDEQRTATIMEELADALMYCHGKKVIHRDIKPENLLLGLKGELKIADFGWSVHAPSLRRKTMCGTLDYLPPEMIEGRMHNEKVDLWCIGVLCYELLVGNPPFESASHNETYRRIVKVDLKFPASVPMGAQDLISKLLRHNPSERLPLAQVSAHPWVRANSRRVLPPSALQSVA", "method_in_brief": "(§1)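 P81 filtration radiometric readout; 2 h incubation at room temperature; 0.1% phosphoric acid wash; DMSO negative control; % inhibition, mean of replicate runs.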"}, "CLK3": {"molecular_target": "T2, CLK3 (Homo sapiens, UniProt P49761)", "T2 construct": "purchased Reaction Biology Corp", "T2 sequence (P49761 whole entry)": "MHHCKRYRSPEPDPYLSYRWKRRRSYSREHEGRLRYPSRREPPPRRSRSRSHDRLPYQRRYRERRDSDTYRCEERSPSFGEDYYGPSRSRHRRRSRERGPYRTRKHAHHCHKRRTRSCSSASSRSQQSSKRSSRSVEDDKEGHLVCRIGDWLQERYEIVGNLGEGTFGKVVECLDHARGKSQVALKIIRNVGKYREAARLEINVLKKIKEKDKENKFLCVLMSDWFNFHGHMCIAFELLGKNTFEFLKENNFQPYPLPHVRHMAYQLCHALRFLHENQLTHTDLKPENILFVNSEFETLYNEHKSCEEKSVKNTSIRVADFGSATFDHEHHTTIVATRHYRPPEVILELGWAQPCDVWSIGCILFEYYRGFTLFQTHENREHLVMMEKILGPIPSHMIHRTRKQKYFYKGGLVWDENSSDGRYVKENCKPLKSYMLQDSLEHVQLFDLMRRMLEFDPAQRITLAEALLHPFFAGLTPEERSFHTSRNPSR", "method_in_brief": "as §1"}, "IRAK4": {"molecular_target": "T3, IRAK4 (Homo sapiens, UniProt Q9NWZ3)", "T3 construct": "purchased Reaction Biology Corp", "T3 sequence (Q9NWZ3 1-460)": "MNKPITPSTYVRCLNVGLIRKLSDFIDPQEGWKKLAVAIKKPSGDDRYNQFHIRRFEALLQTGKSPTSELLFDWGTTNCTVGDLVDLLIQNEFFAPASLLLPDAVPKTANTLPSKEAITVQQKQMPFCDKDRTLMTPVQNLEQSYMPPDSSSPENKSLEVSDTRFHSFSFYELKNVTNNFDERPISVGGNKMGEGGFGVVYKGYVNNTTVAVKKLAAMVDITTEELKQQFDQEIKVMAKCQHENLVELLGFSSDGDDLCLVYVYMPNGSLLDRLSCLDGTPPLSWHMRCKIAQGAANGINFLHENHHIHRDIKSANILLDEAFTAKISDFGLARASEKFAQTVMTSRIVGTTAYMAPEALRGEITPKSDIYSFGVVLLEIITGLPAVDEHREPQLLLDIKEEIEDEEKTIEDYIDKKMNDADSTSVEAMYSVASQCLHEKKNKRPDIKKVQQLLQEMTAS", "method_in_brief": "as §1"}, "JNK2": {"molecular_target": "T4, JNK2 (Homo sapiens, UniProt P45984)", "T4 construct": "purchased Reaction Biology Corp", "T4 sequence (P45984 whole entry)": "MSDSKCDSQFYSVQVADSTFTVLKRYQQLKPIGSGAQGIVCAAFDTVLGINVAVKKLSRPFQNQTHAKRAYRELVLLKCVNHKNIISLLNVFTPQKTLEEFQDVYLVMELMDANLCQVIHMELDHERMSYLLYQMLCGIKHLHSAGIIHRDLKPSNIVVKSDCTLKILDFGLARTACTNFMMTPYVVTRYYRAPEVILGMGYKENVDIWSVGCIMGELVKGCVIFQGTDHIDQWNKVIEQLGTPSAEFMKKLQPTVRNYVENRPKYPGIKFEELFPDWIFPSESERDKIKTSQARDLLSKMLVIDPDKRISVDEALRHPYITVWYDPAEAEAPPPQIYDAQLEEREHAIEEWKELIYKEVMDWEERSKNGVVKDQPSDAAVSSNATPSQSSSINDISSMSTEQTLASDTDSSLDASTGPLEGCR", "method_in_brief": "as §1"}, "LATS2": {"molecular_target": "T5, LATS2 (Homo sapiens, UniProt Q9NRM7)", "T5 construct": "purchased Reaction Biology Corp", "T5 sequence (Q9NRM7 1-1088)": "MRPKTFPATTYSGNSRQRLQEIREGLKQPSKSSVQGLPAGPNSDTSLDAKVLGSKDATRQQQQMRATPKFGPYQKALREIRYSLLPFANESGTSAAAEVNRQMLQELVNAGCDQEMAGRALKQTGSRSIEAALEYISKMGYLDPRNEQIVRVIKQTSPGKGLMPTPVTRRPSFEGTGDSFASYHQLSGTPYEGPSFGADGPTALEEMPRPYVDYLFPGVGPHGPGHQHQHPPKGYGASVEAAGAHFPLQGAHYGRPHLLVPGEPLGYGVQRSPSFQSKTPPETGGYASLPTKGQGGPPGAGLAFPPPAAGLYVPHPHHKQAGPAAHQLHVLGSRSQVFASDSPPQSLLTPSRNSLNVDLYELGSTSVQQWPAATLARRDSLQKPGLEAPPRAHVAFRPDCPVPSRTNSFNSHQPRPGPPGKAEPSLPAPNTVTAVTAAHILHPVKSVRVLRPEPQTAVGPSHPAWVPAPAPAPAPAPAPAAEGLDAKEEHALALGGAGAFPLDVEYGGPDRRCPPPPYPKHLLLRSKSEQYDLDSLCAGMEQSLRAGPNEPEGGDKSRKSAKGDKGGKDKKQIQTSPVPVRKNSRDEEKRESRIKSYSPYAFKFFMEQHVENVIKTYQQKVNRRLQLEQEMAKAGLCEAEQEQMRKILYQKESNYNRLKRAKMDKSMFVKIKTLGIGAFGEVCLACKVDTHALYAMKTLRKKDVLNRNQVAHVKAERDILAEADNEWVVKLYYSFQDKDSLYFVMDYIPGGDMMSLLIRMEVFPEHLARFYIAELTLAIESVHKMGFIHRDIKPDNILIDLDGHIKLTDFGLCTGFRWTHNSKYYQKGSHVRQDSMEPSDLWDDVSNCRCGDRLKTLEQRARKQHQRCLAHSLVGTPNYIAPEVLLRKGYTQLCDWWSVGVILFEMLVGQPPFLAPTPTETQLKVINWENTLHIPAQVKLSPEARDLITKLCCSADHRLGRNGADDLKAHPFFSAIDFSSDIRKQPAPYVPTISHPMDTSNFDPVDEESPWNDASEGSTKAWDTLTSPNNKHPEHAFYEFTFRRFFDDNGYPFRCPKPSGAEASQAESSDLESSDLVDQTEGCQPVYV", "method_in_brief": "as §1"}, "MINK/MINK1": {"molecular_target": "T6, MINK/MINK1 (Homo sapiens, UniProt Q8N4C8)", "T6 construct": "purchased Reaction Biology Corp", "method_in_brief": "as §1"}, "MNK1": {"molecular_target": "T7, MNK1 (Homo sapiens, UniProt Q9BUB5)", "T7 construct": "purchased Reaction Biology Corp", "T7 sequence (Q9BUB5 whole entry)": "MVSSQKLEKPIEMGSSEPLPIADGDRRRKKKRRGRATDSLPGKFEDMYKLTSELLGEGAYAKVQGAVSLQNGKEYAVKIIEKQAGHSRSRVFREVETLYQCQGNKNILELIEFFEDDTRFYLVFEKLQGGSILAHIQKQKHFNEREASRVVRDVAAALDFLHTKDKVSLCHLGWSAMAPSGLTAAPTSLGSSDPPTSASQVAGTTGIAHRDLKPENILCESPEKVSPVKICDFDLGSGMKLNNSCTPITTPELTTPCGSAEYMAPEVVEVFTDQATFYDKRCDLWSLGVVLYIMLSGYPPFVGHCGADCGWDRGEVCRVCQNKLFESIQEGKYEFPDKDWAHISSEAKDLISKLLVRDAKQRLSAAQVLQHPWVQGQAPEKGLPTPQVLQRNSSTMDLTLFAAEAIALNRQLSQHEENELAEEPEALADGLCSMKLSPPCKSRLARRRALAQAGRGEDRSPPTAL", "method_in_brief": "as §1"}, "PYK2": {"molecular_target": "T8, PYK2 (Homo sapiens, UniProt Q14289)", "T8 construct": "purchased Reaction Biology Corp", "T8 sequence (Q14289 whole entry)": "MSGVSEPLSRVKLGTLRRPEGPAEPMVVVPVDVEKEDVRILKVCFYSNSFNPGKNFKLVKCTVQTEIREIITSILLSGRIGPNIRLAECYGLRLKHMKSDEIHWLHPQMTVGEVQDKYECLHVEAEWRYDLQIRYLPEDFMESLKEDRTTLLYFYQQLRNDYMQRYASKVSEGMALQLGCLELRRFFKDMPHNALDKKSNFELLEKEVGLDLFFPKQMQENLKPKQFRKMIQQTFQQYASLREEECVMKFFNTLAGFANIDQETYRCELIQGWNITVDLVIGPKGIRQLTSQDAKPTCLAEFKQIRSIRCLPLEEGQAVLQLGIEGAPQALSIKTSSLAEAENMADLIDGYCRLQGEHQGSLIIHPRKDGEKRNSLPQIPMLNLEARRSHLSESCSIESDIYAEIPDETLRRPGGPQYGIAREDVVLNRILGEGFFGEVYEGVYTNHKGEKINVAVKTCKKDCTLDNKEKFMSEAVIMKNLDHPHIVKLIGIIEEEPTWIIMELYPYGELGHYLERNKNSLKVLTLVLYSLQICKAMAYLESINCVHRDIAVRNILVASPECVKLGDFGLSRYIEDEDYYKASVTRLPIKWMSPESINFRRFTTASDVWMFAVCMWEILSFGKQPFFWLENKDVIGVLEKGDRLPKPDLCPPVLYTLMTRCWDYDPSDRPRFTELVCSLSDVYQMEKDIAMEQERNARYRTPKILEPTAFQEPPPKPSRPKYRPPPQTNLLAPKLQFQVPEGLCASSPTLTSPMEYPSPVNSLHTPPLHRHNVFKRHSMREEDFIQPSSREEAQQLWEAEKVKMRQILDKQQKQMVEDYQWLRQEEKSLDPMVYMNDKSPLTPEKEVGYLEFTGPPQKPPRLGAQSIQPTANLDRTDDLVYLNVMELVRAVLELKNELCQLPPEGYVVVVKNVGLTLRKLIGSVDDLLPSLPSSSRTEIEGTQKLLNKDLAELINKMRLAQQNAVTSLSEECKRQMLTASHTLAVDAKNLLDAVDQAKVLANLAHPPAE", "method_in_brief": "as §1"}, "RET": {"molecular_target": "T9, RET (Homo sapiens, UniProt P07949)", "T9 construct": "purchased Reaction Biology Corp", "T9 sequence (P07949 29-1114)": "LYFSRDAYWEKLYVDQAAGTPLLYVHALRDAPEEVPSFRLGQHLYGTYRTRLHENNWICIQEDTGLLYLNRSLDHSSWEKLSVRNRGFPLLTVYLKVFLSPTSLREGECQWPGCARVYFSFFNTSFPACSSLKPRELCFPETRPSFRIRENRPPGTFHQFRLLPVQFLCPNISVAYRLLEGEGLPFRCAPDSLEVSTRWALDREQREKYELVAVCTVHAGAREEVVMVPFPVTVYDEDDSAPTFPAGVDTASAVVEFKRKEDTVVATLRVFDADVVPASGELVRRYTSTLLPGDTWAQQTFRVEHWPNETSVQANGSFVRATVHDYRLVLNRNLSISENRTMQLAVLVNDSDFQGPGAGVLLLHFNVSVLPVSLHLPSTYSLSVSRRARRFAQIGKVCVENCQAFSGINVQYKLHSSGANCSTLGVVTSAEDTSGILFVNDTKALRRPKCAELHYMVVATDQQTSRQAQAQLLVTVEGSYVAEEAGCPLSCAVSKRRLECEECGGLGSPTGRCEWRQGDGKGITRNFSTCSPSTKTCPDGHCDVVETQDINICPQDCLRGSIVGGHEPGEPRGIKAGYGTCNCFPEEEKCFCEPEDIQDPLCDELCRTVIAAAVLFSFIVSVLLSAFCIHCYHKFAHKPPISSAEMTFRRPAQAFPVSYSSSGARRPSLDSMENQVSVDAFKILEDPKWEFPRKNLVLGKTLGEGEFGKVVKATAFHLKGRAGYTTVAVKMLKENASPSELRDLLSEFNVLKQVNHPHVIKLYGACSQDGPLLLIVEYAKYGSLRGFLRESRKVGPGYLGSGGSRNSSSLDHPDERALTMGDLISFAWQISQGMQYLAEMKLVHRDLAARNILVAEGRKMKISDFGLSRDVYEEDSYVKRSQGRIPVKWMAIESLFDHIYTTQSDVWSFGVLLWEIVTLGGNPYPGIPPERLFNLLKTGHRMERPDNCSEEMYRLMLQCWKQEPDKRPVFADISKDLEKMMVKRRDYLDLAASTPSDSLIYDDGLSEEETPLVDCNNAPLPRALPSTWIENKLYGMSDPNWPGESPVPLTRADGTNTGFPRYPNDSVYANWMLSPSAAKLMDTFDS", "method_in_brief": "as §1"}, "TESK1": {"molecular_target": "T10, TESK1 (Homo sapiens, UniProt Q15569)", "T10 construct": "purchased Reaction Biology Corp", "T10 sequence (Q15569 whole entry)": "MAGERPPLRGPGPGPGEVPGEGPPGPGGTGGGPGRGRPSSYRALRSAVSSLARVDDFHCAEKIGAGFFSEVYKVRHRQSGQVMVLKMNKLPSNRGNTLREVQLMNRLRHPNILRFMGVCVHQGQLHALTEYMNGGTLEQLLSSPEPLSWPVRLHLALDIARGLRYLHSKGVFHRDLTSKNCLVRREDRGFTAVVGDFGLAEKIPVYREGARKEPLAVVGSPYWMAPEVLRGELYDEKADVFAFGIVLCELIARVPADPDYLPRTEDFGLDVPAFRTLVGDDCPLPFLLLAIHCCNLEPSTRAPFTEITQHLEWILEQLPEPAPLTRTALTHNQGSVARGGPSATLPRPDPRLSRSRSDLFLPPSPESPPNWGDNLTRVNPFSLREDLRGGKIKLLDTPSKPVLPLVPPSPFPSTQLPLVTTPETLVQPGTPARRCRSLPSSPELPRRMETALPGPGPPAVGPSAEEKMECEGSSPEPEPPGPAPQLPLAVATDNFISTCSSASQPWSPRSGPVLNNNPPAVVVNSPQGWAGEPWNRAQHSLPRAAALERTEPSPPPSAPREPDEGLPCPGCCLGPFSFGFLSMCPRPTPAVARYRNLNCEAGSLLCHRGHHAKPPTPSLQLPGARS", "method_in_brief": "as §1"}, "[1]": {"conditions": "read-out: % Enzyme Activity (relative to DMSO controls) Run 1"}, "[2]": {"conditions": "read-out: % Enzyme Activity (relative to DMSO controls) Run 2"}}, "note": "Where two headings read alike, the source gives them in different places."}
{"smiles": "C=CC(=O)Nc1cccc(Nc2nc(Nc3ccc(OCCOC)c(F)c3)ncc2F)c1", "note": "[Compound 2]", "values": [{"measurement": "inhibition at 3 µM", "setting": "Aurora B", "value": 86.9, "unit": "%"}, {"measurement": "remaining activity at 3 µM", "setting": "Aurora B; [1]", "value": 13.2, "unit": "%"}, {"measurement": "remaining activity at 3 µM", "setting": "Aurora B; [2]", "value": 12.9, "unit": "%"}, {"measurement": "inhibition at 3 µM", "setting": "CLK3", "value": 6.9, "unit": "%"}, {"measurement": "remaining activity at 3 µM", "setting": "CLK3; [1]", "value": 90.4, "unit": "%"}, {"measurement": "remaining activity at 3 µM", "setting": "CLK3; [2]", "value": 95.8, "unit": "%"}, {"measurement": "inhibition at 3 µM", "setting": "IRAK4", "value": 12.4, "unit": "%"}, {"measurement": "remaining activity at 3 µM", "setting": "IRAK4; [1]", "value": 88.6, "unit": "%"}, {"measurement": "remaining activity at 3 µM", "setting": "IRAK4; [2]", "value": 86.5, "unit": "%"}, {"measurement": "inhibition at 3 µM", "setting": "JNK2", "value": 6.22, "unit": "%"}, {"measurement": "remaining activity at 3 µM", "setting": "JNK2; [1]", "value": 92.5, "unit": "%"}, {"measurement": "remaining activity at 3 µM", "setting": "JNK2; [2]", "value": 95.1, "unit": "%"}, {"measurement": "inhibition at 3 µM", "setting": "LATS2", "value": 10.2, "unit": "%"}, {"measurement": "remaining activity at 3 µM", "setting": "LATS2; [1]", "value": 88.4, "unit": "%"}, {"measurement": "remaining activity at 3 µM", "setting": "LATS2; [2]", "value": 91.2, "unit": "%"}, {"measurement": "inhibition at 3 µM", "setting": "MINK/MINK1", "value": 0.9, "unit": "%"}, {"measurement": "remaining activity at 3 µM", "setting": "MINK/MINK1; [1]", "value": 101, "unit": "%"}, {"measurement": "remaining activity at 3 µM", "setting": "MINK/MINK1; [2]", "value": 97.5, "unit": "%"}, {"measurement": "inhibition at 3 µM", "setting": "MNK1", "value": 3.98, "unit": "%"}, {"measurement": "remaining activity at 3 µM", "setting": "MNK1; [1]", "value": 97.8, "unit": "%"}, {"measurement": "remaining activity at 3 µM", "setting": "MNK1; [2]", "value": 94.3, "unit": "%"}, {"measurement": "inhibition at 3 µM", "setting": "PYK2", "value": 29.6, "unit": "%"}, {"measurement": "remaining activity at 3 µM", "setting": "PYK2; [1]", "value": 70.6, "unit": "%"}, {"measurement": "remaining activity at 3 µM", "setting": "PYK2; [2]", "value": 70.1, "unit": "%"}, {"measurement": "inhibition at 3 µM", "setting": "RET", "value": 86.6, "unit": "%"}, {"measurement": "remaining activity at 3 µM", "setting": "RET; [1]", "value": 13.2, "unit": "%"}, {"measurement": "remaining activity at 3 µM", "setting": "RET; [2]", "value": 13.6, "unit": "%"}, {"measurement": "inhibition at 3 µM", "setting": "TESK1", "value": 2.13, "unit": "%"}, {"measurement": "remaining activity at 3 µM", "setting": "TESK1; [1]", "value": 97.2, "unit": "%"}, {"measurement": "remaining activity at 3 µM", "setting": "TESK1; [2]", "value": 98.5, "unit": "%"}]}
